Source: PubChem BioAssay AID276 (DTP/NCI, 2004)
Several values for one entry are separate records, joined by “and”; a condition that tells them apart may be missing. Equal entries are not always repeated. Inconclusive results and toxic doses are left out. Rule for the calls: active = survival T/C of 150% or more; inactive = T/C below 125% in these data.

Test system: B6C3F1 mice, Lewis lung carcinoma iv, survival T/C
Experiment: NCI In Vivo Anticancer Drug Screen. Data for tumor model Lewis Lung Carcinoma (intravenous) in B6C3F1 mice
Details: endpoint: median survival time, higher = longer survival
Outline: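 Tumors were transplanted into mice, which were then dosed with compound or vehicle. Survival was recorded in each group, and the treated figure was divided by the control figure.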

[1] = dose: 12.5 mg/kg/injection, schedule: Q01DX009 (ip), vehicle: suspension in saline
[2] = dose: 25.0 mg/kg/injection, schedule: Q01DX009 (ip), vehicle: suspension in saline
[3] = dose: 50.0 mg/kg/injection, schedule: Q01DX009 (ip), vehicle: suspension in saline
[4] = dose: 25.0 mg/kg/injection, schedule: Q01DX009 (ip), vehicle: saline
[5] = dose: 50.0 mg/kg/injection, schedule: Q01DX009 (ip), vehicle: saline
[6] = dose: 100.0 mg/kg/injection, schedule: Q01DX009 (ip), vehicle: saline
[7] = dose: 200.0 mg/kg/injection, schedule: Q01DX009 (ip), vehicle: saline
[8] = dose: 12.5 mg/kg/injection, schedule: Q01DX009 (ip), vehicle: Klucel (hydroxypropylcellulose) (HPC)
[9] = dose: 25.0 mg/kg/injection, schedule: Q01DX009 (ip), vehicle: Klucel (hydroxypropylcellulose) (HPC)
[10] = dose: 50.0 mg/kg/injection, schedule: Q01DX009 (ip), vehicle: Klucel (hydroxypropylcellulose) (HPC)
[11] = dose: 6.25 mg/kg/injection, schedule: Q01DX009 (ip), vehicle: water
[12] = dose: 6.25 mg/kg/injection, schedule: Q01DX009 (ip), vehicle: saline with Tween-80
[13] = dose: 12.5 mg/kg/injection, schedule: Q01DX009 (ip), vehicle: saline with Tween-80
[14] = dose: 25.0 mg/kg/injection, schedule: Q01DX009 (ip), vehicle: saline with Tween-80
[15] = dose: 50.0 mg/kg/injection, schedule: Q01DX009 (ip), vehicle: saline with Tween-80
[16] = dose: 3.12 mg/kg/injection, schedule: Q01DX009 (ip), vehicle: saline
[17] = dose: 6.25 mg/kg/injection, schedule: Q01DX009 (ip), vehicle: saline
[18] = dose: 12.5 mg/kg/injection, schedule: Q01DX009 (ip), vehicle: saline

Measured: T/C

COc1cc2c[n+](C)c3c(c2cc1OC)Cc1cc2c(cc1-3)OCO2
inactive: [1] 97 % of control | [2] 114 % of control | [3] 119 % of control

COc1ccc(CC2C(=O)NC(C)C(=O)N(C)C3Cc4ccc(cc4)Oc4cc(ccc4O)CC(C(=O)NC(C)C(=O)NC(C)C(=O)N2C)N(C)C3=O)cc1 (stereo not drawn)
inactive: dose: 0.25 mg/kg/injection, schedule: Q01DX009 (ip), vehicle: saline with Tween-80 110 % of control | dose: 0.5 mg/kg/injection, schedule: Q01DX009 (ip), vehicle: saline with Tween-80 107 % of control | dose: 1.0 mg/kg/injection, schedule: Q01DX009 (ip), vehicle: saline with Tween-80 106 % of control | dose: 2.0 mg/kg/injection, schedule: Q01DX009 (ip), vehicle: saline with Tween-80 106 % of control

O=c1ncccn1[C@@H]1O[C@H](CO)[C@H](O)C1O (stereo partly drawn)
inactive: [4] 92 % of control and 96 % of control | [5] 88 % of control and 101 % of control | [6] 105 % of control | [7] 108 % of control and 119 % of control | dose: 400.0 mg/kg/injection, schedule: Q01DX009 (ip), vehicle: saline 97 % of control and 116 % of control

NC(=S)c1ncn(C2OC(CO)C(O)C2O)c1N (stereo not drawn)
inactive: [1] 100 % of control | [2] 99 % of control | [3] 106 % of control | dose: 100.0 mg/kg/injection, schedule: Q01DX009 (ip), vehicle: suspension in saline 110 % of control | dose: 200.0 mg/kg/injection, schedule: Q01DX009 (ip), vehicle: suspension in saline 116 % of control

COc1nc(C(Cl)(Cl)Cl)c(Cl)c(OC)c1Cl
inactive: dose: 25.0 mg/kg/injection, schedule: Q01DX008 (ip), vehicle: Klucel (hydroxypropylcellulose) (HPC) 120 % of control | dose: 50.0 mg/kg/injection, schedule: Q01DX008 (ip), vehicle: Klucel (hydroxypropylcellulose) (HPC) 113 % of control | dose: 100.0 mg/kg/injection, schedule: Q01DX008 (ip), vehicle: Klucel (hydroxypropylcellulose) (HPC) 113 % of control

CC(=O)OC1=NC(C)c2c1cc(OC(C)=O)[nH]c2=O (stereo not drawn)
inactive: [8] 102 % of control | [9] 98 % of control | [10] 95 % of control

COC(=O)NC1C(C)OC(OC2C/C=C(/C)C3C=CC4C(OC5CC(OC6CCC(OC7CC(O)C(OC8CCC(O)C(C)O8)C(C)O7)C(C)O6)C(OC(C)=O)C(C)O5)C(C)CC(C)C4C3(C)/C(O)=C3/C(=O)OC4(CC(C=O)=CC(O)C4/C=C\2C)C3=O)CC1(C)[N+](=O)[O-] (stereo not drawn)
inactive: dose: 1.25 mg/kg/injection, schedule: Q01DX009 (ip), vehicle: water 108 % of control | dose: 2.5 mg/kg/injection, schedule: Q01DX009 (ip), vehicle: water 97 % of control | dose: 5.0 mg/kg/injection, schedule: Q01DX009 (ip), vehicle: water 98 % of control

CN1N=C(N)c2cn(C3OC(COP(=O)(O)O)C(O)C3O)c3ncnc1c23 (stereo not drawn)
inactive: [11] 98 % of control

COc1cc2c(c(OC)c1OC)-c1ccc(OC)c(=O)cc1[C@@H](NC(C)=O)CC2
inactive: dose: 0.06 mg/kg/injection, schedule: Q01DX009 (ip), vehicle: saline 108 % of control | dose: 0.12 mg/kg/injection, schedule: Q01DX009 (ip), vehicle: saline 92 % of control | dose: 0.19 mg/kg/injection, schedule: Q01DX009 (ip), vehicle: saline 99 % of control | dose: 0.25 mg/kg/injection, schedule: Q01DX009 (ip), vehicle: saline 100 % of control | dose: 0.39 mg/kg/injection, schedule: Q01DX009 (ip), vehicle: saline 104 % of control | dose: 0.5 mg/kg/injection, schedule: Q01DX009 (ip), vehicle: saline 93 % of control | dose: 0.78 mg/kg/injection, schedule: Q01DX009 (ip), vehicle: saline 104 % of control | dose: 1.0 mg/kg/injection, schedule: Q01DX009 (ip), vehicle: saline 100 % of control | dose: 2.0 mg/kg/injection, schedule: Q01DX009 (ip), vehicle: saline 112 % of control

Nc1ncnc2c1cnn2Cc1ccc(Cl)cc1
inactive: [4] 94 % of control | [5] 106 % of control | [6] 111 % of control | [7] 93 % of control

CCCCCC[Se][Se]CCCCCC
inactive: dose: 1.56 mg/kg/injection, schedule: Q01DX009 (ip), vehicle: Klucel (hydroxypropylcellulose) (HPC) 97 % of control | dose: 3.12 mg/kg/injection, schedule: Q01DX009 (ip), vehicle: Klucel (hydroxypropylcellulose) (HPC) 105 % of control | dose: 6.25 mg/kg/injection, schedule: Q01DX009 (ip), vehicle: Klucel (hydroxypropylcellulose) (HPC) 100 % of control | [8] 95 % of control

O=C1CN(Cc2ccc3c(c2)OCO3)NO1
inactive: [12] 104 % of control and 109 % of control | [13] 106 % of control and 87 % of control | [14] 104 % of control and 123 % of control | [15] 104 % of control and 111 % of control | dose: 100.0 mg/kg/injection, schedule: Q01DX009 (ip), vehicle: saline with Tween-80 123 % of control and 86 % of control

C[C@@](O)(/C=C/[C@H]1CC=CC(=O)O1)[C@@H](C[C@@H](O)\C=C/C=C\C=C\CO)OP(=O)(O)O
inactive: dose: 1.56 mg/kg/injection, schedule: Q01DX009 (ip), vehicle: other 93 % of control | dose: 3.12 mg/kg/injection, schedule: Q01DX009 (ip), vehicle: other 91 % of control and 93 % of control and 100 % of control | dose: 6.25 mg/kg/injection, schedule: Q01DX009 (ip), vehicle: other 92 % of control and 95 % of control and 98 % of control | dose: 12.5 mg/kg/injection, schedule: Q01DX009 (ip), vehicle: other 100 % of control and 103 % of control (2×) | dose: 25.0 mg/kg/injection, schedule: Q01DX009 (ip), vehicle: other 114 % of control

O=C1C(O)=C(c2ccccc2)C(=O)C(O)=C1c1ccccc1
inactive: dose: 1.56 mg/kg/injection, schedule: Q01DX009 (ip), vehicle: saline 98 % of control | [16] 98 % of control and 117 % of control | [12] 99 % of control | [17] 99 % of control and 118 % of control | [13] 101 % of control | [18] 108 % of control and 113 % of control | [14] 101 % of control | [4] 98 % of control and 104 % of control | [15] 102 % of control | [5] 94 % of control and 99 % of control

C[C@H](N)C(=O)N[C@@H]1[C@H]2C(=C(O)C[C@@H](O)[C@@H]2O)C(=O)O[C@@H]1C
inactive: dose: 75.0 mg/kg/injection, schedule: Q01DX009 (ip), vehicle: saline 102 % of control and 106 % of control | dose: 150.0 mg/kg/injection, schedule: Q01DX009 (ip), vehicle: saline 105 % of control and 106 % of control | dose: 300.0 mg/kg/injection, schedule: Q01DX009 (ip), vehicle: saline 107 % of control and 110 % of control | dose: 600.0 mg/kg/injection, schedule: Q01DX009 (ip), vehicle: saline 114 % of control and 120 % of control | dose: 1200.0 mg/kg/injection, schedule: Q01DX009 (ip), vehicle: saline 117 % of control

O=C(O)[C@H](Cc1ccccc1)N1C(=O)c2ccccc2C1=O
inactive: dose: 3.12 mg/kg/injection, schedule: Q01DX009 (ip), vehicle: DMSO 102 % of control | dose: 6.25 mg/kg/injection, schedule: Q01DX009 (ip), vehicle: DMSO 105 % of control | dose: 12.5 mg/kg/injection, schedule: Q01DX009 (ip), vehicle: DMSO 105 % of control | dose: 25.0 mg/kg/injection, schedule: Q01DX009 (ip), vehicle: DMSO 100 % of control | dose: 50.0 mg/kg/injection, schedule: Q01DX009 (ip), vehicle: DMSO 98 % of control

CC1CN1P1(N2CC2C)=NP(N2CC2C)(N2CC2C)=NP(N2CC2C)(N2CC2C)=N1 (stereo not drawn)
inactive: [16] 100 % of control | [17] 100 % of control | [18] 98 % of control | [4] 97 % of control | [5] 90 % of control

Cn1c(=O)[nH]c2nncnc2c1=O
inactive: dose: 3.12 mg/kg/injection, schedule: Q01DX009 (ip), vehicle: water 97 % of control | [11] 105 % of control | dose: 12.5 mg/kg/injection, schedule: Q01DX009 (ip), vehicle: water 102 % of control | dose: 25.0 mg/kg/injection, schedule: Q01DX009 (ip), vehicle: water 94 % of control | dose: 50.0 mg/kg/injection, schedule: Q01DX009 (ip), vehicle: water 90 % of control

COc1cc(Cc2nccc3cc(OC)c(OC)cc23)c(C(C)=O)cc1OC
inactive: [8] 98 % of control | [9] 120 % of control | [10] 106 % of control | dose: 100.0 mg/kg/injection, schedule: Q01DX009 (ip), vehicle: Klucel (hydroxypropylcellulose) (HPC) 101 % of control
